Data from the Kinase Knowledgebase extract (Sharma et al. 2016).

Columns and labels:
EGFR (human) [1] = target: EGFR (human) (UniProt P00533); settings: A431
EGFR (human) [2] = target: EGFR (human) (UniProt P00533); settings: a431

Chain of EGFR (human) (P00533 whole entry, looked up): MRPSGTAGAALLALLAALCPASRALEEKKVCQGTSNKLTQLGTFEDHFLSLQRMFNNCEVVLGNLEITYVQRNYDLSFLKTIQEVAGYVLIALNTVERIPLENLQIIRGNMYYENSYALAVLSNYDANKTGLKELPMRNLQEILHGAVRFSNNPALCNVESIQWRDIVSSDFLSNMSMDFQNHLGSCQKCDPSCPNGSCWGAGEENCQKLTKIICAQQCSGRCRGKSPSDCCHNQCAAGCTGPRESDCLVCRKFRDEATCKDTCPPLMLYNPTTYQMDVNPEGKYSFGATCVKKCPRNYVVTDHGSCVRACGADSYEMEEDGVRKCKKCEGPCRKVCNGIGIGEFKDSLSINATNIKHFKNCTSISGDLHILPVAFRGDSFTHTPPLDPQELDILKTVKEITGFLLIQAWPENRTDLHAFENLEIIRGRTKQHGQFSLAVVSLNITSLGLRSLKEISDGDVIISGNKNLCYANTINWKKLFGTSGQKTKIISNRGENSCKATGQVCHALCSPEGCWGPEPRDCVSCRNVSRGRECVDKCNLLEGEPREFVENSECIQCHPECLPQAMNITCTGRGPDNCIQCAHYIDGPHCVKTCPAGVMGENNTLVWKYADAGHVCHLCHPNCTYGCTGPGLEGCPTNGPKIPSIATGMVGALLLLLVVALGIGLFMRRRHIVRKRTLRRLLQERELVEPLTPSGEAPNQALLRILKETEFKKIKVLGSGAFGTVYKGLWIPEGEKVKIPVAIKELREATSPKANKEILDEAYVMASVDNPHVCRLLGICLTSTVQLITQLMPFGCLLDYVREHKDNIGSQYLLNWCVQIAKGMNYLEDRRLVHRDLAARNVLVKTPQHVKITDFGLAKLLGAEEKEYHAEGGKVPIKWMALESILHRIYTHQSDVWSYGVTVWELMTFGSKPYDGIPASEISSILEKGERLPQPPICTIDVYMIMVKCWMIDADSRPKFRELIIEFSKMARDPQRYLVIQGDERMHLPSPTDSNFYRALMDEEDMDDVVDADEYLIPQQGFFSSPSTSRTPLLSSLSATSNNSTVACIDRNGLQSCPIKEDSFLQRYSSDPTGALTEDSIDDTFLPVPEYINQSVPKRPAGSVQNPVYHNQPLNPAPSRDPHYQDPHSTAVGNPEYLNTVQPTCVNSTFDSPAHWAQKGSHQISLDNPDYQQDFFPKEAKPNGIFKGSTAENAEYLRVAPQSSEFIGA

Compound | IC50 (EGFR (human) [1]) | IC50 (EGFR (human) [2])
COc1cc2nccc(Nc3ccc(OCc4ccccc4)cc3)c2cc1OC | > 50 µM | > 50 µM
c1csc(COc2ccc(Nc3ncnc4ccccc34)cc2)c1 | > 50 µM | > 50 µM
c1ccc(COc2ccc(Oc3ncnc4ccccc34)cc2)cc1 | > 50 µM | > 50 µM
c1ccc(Oc2ccc(Nc3ccnc4ccccc34)cc2)cc1 | > 50 µM | 31 µM
c1ccc(COc2cccc(Nc3ncnc4ccccc34)c2)cc1 | > 50 µM | 50 µM
O=[N+]([O-])c1ccc2ncnc(Nc3ccc(Oc4ccccc4)cc3)c2c1 | > 50 µM | > 50 µM
c1ccc(COc2ccc(Nc3ccnc4ccccc34)cc2)cc1 | > 50 µM | > 50 µM
Clc1ccc2c(Nc3ccc(OCc4ccccc4)cc3)ncnc2c1 | > 30 µM | 50 µM

Results, then the compound that gave them:

IC50 (EGFR (human) [1]) | IC50 (EGFR (human) [2]) | Compound
15 µM | 12 µM | COc1ccc2ncnc(Nc3ccc(OCc4ccccc4)cc3)c2c1
5 µM | 50 µM | COc1cc2ncnc(Nc3ccc(OCc4ccccc4)cc3)c2cc1OC
1.6 µM | 6.9 µM | COc1cc2ncnc(Nc3ccc(OCc4ccccc4)c(OC)c3)c2cc1OC
15 µM | > 50 µM | COc1cc2ncnc(Nc3ccc(Nc4ccccc4)cc3)c2cc1OC
8 µM | 30 µM | COc1cc2ncnc(Nc3ccc(Oc4ccccc4)cc3)c2cc1OC
10 µM | 29 µM | Brc1ccc2ncnc(Nc3ccc(OCc4ccccc4)cc3)c2c1
> 30 µM | > 50 µM | Cc1cc2ncnc(Nc3ccc(OCc4ccccc4)cc3)c2cc1C
50 µM | > 50 µM | COc1cc2nccc(Nc3ccc(N4C(=O)c5ccc(Cl)cc5C4=O)c(C)c3)c2cc1OC
65 µM | > 50 µM | COc1ccc2c(Nc3ccc(OCc4ccccc4)cc3)ncnc2c1
11 µM | 28 µM | COc1cccc2ncnc(Nc3ccc(OCc4ccccc4)cc3)c12
